# Earlier results in patent US20070020218A1, “Composition and method for the treatment of psoriasis” (priority 2005, published 2007).
# How the values were obtained:
# [1] = oral
# [2] = system: osteoarthritis of the knee; conditions: 85 people with osteoarthritis of the knee
# [3] = system: arthritis of the knee; conditions: 12 months, 104 individuals
# [4] = system: knee osteoarthritis; conditions: for persistence of benefits after treatment was stopped: followed for an additional 60 days after the 90 days of treatment; for reduction of symptoms: over 90 days of treatment
# [5] = system: degenerative arthritis; conditions: 2,250 mg daily for six weeks
# [6] = system: osteoarthritis of the knee; conditions: after 4 weeks, 252 people
compound,measurement,setting,value
chondroitin sulfate,chondroitin absorbed intact,[1],up to 15%
same,participants with improved results,[2],69%
same,trial outcome against placebo,[3],Good results
"CN1C(C(=O)Nc2ccccn2)=C(O)c2ccccc2S1(=O)=O [piroxicam, reference compound]",persistence of benefits after treatment was stopped,[4],rapidly disappeared
same,reduction of symptoms,[4],equally effective
"CS(C)(=O)=O [MSM, Methylsulfonyl methane]",reduction in pain on average,[5],82%
N[C@H]1C(O)O[C@H](CO)[C@@H](O)[C@@H]1O.O=S(=O)(O)O (stereo partly drawn) [glucosamine sulfate],pain and movement against placebo,[6],significantly reduced pain and improved movement
same,persistence of benefits after treatment was stopped,[4],lasted for the full 60 days
same,reduction of symptoms,[4],equally effective
